From US20240398812A1 (Caraway Therapeutics, Inc., priority 2021, published 2024)

Experiments:
TRPMLs = details: high concentrations needed; HEK293 cells expressing plasma-membrane TRPML1; cited from earlier work
human TRPML1 = human TRPML1 (Homo sapiens, UniProt Q9GZU1); assay: Fluorescent TRPML1 assay (Fluo4-AM calcium fluorescence, HEK-293 Trex cells); type: cell-based
How it was run: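 Tet-inducible HEK-293 Trex cells stably expressing surface-targeted mutant human TRPML1, induced with 0.5 ug/mL doxycycline overnight, loaded with Fluo4-AM and suspended in Ringer's with 10 mM calcium. Compounds tested from 20 μM to 6 nM final, half-log steps, in triplicate; fluorescence (ex 480/em 540) normalised to plate controls, EC50 by non-linear regression.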

TRPML3 = molecular target: T1, TRPML3 (Homo sapiens, UniProt Q8TDD5); assay: Fluorescent TRPML3 assay (as for TRPML1); type: cell-based
T1 construct: expressed in transfected cells
T1 sequence (Q8TDD5 1-553): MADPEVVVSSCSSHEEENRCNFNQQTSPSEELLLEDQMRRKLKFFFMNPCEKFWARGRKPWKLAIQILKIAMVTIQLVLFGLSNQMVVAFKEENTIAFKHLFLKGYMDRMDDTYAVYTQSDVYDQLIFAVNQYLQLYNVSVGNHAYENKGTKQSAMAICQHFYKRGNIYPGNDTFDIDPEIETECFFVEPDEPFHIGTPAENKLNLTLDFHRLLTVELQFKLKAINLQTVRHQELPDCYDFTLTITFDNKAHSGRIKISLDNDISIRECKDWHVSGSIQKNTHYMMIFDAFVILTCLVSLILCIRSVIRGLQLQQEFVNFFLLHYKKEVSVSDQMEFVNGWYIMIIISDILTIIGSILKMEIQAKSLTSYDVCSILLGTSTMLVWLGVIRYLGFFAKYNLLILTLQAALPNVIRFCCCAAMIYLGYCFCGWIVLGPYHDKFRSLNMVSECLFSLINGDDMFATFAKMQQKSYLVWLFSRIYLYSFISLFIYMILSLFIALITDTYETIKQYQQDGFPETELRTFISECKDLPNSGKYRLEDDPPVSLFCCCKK
How it was run: (§1)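 HEK-293 Trex cells with tet-inducible (0.5 ug/mL doxycycline, overnight) surface-targeted mutant channel, Fluo4-AM loaded, suspended in Ringer's with 10 mM calcium. Compounds tested 20 µM to 6 nM final, half-log steps, triplicate; fluorescence at ex 480/em 540 nm. EC50 by non-linear regression of percent activity versus plate controls.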

TRPML2 = molecular target: T2, TRPML2 (Homo sapiens, UniProt Q8IZK6); assay: Fluorescent TRPML2 assay (as for TRPML1); type: cell-based
T2 construct: expressed in transfected cells
T2 sequence (Q8IZK6 1-566): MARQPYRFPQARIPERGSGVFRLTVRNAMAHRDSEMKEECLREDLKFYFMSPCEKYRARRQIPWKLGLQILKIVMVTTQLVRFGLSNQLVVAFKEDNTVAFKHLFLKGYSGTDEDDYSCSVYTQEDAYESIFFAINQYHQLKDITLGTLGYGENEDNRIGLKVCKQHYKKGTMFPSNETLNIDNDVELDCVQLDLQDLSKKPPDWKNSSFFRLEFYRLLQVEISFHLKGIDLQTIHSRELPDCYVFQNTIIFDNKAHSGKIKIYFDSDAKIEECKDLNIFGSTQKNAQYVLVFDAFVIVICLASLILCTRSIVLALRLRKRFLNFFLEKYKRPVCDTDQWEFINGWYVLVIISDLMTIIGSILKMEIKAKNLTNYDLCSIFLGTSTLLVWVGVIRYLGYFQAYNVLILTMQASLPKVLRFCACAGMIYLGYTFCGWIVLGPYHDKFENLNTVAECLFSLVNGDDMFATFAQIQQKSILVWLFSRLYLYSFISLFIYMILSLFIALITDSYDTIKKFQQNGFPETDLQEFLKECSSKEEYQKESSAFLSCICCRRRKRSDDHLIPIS
How it was run: as §1

human TRPML1, sequence (Q9GZU1 whole entry L15A/L16A/L577A/L578A, form open): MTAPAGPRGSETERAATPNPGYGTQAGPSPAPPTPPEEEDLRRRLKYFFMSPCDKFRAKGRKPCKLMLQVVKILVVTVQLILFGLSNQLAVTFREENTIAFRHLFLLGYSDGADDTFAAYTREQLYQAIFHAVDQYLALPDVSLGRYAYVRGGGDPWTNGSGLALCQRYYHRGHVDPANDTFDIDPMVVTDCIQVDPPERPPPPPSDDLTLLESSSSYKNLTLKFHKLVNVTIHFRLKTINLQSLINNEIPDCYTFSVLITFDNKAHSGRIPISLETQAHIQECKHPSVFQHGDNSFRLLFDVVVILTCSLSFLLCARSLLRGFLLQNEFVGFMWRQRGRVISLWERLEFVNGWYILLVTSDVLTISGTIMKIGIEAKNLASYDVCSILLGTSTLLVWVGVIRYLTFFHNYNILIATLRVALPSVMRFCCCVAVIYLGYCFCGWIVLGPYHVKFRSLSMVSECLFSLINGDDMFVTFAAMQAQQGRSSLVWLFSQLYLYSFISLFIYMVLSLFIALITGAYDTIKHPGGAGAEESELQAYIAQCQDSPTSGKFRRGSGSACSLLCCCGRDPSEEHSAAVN

SMILES | concentration needed to effectively activate TRPMLs (TRPMLs) [µM] | EC50 (human TRPML1; Table 3, compounds 201-283) [nM] | EC50 (TRPML3; Table 3, compounds 201-283) [nM] | EC50 (TRPML2; Table 3, compounds 201-283) [nM] | EC50 (human TRPML1; Table 3, compounds 101-177) [nM] | EC50 (TRPML3; Table 3, compounds 101-177) [nM] | EC50 (TRPML2; Table 3, compounds 101-177) [nM]
CC1CC(C)(C)N(C(=O)CN2C(=O)c3ccccc3C2=O)c2ccccc21 (stereo not shown) [ML-SA1] | ~10 |  |  |  |  |  | 
COC(C)(C)C(=O)N1C[C@H](C)N(c2ncnc3c2c(N2CCC2)cn3-c2cccc(F)c2)C[C@H]1C [Compound 277, 1-((2R,5S)-4-(5-(azetidin-1-yl)-7-(3-fluorophenyl)-7H-pyrrolo[2,3-d]pyrimidin-4-yl)-2,5-dimethylpiperazin-1-yl)-2-methoxy-2-methylpropan-1-one] |  | < 100 | 100 to 500 | 500 to 2000 |  |  | 
C[C@@H]1CN(c2ncnc3c2c(C2CCC2)cn3-c2cccc(F)c2)[C@@H](C)CN1C(=O)C(C)(C)C [Compound 250, 1-((2R,5S)-4-(5-cyclobutyl-7-(3-fluorophenyl)-7H-pyrrolo[2,3-d]pyrimidin-4-yl)-2,5-dimethylpiperazin-1-yl)-2,2-dimethylpropan-1-one] |  | 100 to 500 | 500 to 2000 | > 2000 |  |  | 
C[C@@H]1CN(c2ncnc3c2c(C2CCC2)cn3-c2cccc(Cl)c2)[C@@H](C)CN1C(=O)C(C)(C)C(F)(F)F [Compound 257, 1-((2R,5S)-4-(7-(3-chlorophenyl)-5-cyclobutyl-7H-pyrrolo[2,3-d]pyrimidin-4-yl)-2,5-dimethylpiperazin-1-yl)-3,3,3-trifluoro-2,2-dimethylpropan-1-one] |  | < 100 | 500 to 2000 | 100 to 500 |  |  | 
C[C@@H]1CN(c2ncnc3c2c(-c2ccccc2)cn3-c2cc(C#N)ccn2)CCN1C(=O)C(C)(C)C [Compound 121, (R)-2-(4-(3-methyl-4-pivaloylpiperazin-1-yl)-5-phenyl-7H-pyrrolo[2,3-d]pyrimidin-7-yl)isonicotinonitrile] |  |  |  |  | < 100 | < 100 | 100 to 500
CC(C)C(=O)N1C[C@H](C)N(c2ncnc3c2c(-c2ccccc2F)cn3-c2cc(C#N)ccn2)C[C@H]1C [Compound 139, 2-(5-(2-fluorophenyl)-4-((2S,5R)-4-isobutyryl-2,5-dimethylpiperazin-1-yl)-7H-pyrrolo[2,3-d]pyrimidin-7-yl)isonicotinonitrile] |  |  |  |  | < 100 | < 100 | < 100
C[C@@H]1CN(c2ncnc3c2c(-c2ccccc2F)cn3-c2cc(C#N)ccn2)[C@@H](C)CN1C(=O)C(C)(C)O [Compound 158, 2-(5-(2-fluorophenyl)-4-((2S,5R)-4-(2-hydroxy-2-methylpropanoyl)-2,5-dimethylpiperazin-1-yl)-7H-pyrrolo[2,3-d]pyrimidin-7-yl)isonicotinonitrile] |  |  |  |  | < 100 | < 100 | 100 to 500
COC(C)(C)C(=O)N1C[C@H](C)N(c2ncnc3c2c(C2CC2)cn3-c2cccc(F)c2)C[C@H]1C [Compound 246, 1-((2R,5S)-4-(5-cyclopropyl-7-(3-fluorophenyl)-7H-pyrrolo[2,3-d]pyrimidin-4-yl)-2,5-dimethylpiperazin-1-yl)-2-methoxy-2-methylpropan-1-one] |  | 100 to 500 | 100 to 500 | 500 to 2000 |  |  | 
C[C@@H]1CN(c2ncnc3c2c(C2CCC2)cn3-c2cc(F)cc(F)c2)[C@@H](C)CN1C(=O)CC(C)(C)C(F)(F)F [Compound 256, 1-((2R,5S)-4-(5-cyclobutyl-7-(3,5-difluorophenyl)-7H-pyrrolo[2,3-d]pyrimidin-4-yl)-2,5-dimethylpiperazin-1-yl)-4,4,4-trifluoro-3,3-dimethylbutan-1-one] |  | 500 to 2000 | 500 to 2000 | > 2000 |  |  | 
C[C@@H]1CN(c2ncnc3c2c(C2CCC2)cn3-c2cccc(Cl)c2)[C@@H](C)CN1C(=O)C(C)(C)C [Compound 253, 1-((2R,5S)-4-(7-(3-chlorophenyl)-5-cyclobutyl-7H-pyrrolo[2,3-d]pyrimidin-4-yl)-2,5-dimethylpiperazin-1-yl)-2,2-dimethylpropan-1-one] |  | < 100 | 100 to 500 | 500 to 2000 |  |  | 
